Tested on: 598228-144-R-J1-PDC complex spheroid viability
Assay: Anticancer human tumor 598228-144-R-J1-PDC patient-derived serous endometrial adenocarcinoma cell line growth inhibition [GQUAD]
Conditions: for IC50: curve of first compound; for viability, T/C: stronger effect = lower value
From the text: DNA G-quadruplex Stabilizer Agents in Combinations in Complex Spheroids
A high-throughput screen of multi-cell type tumor spheroids was designed to identify active combinations of DNA G-quadruplex stabilizer agents and targeted small molecules. Complex spheroids include a stromal component modeled by human endothelial cells (HUVEC) and fibroblasts modeled by human mesenchymal stem cells (MSCs). The concentration ranges selected for each drug and investigational agent were based upon clinically achievable concentrations if the clinical Cmax of the agent was known.
Compounds. The drugs and investigational agents: pidnarulex (CX-5461; NSC782164), APTO-253 (NSC789042), BRACO-19 (NSC847499), peposertib (NSC802822), ceralasertib (NSC780249), elimusertib (NSC800525), camonsertib (NSC841442), AZD-1390 (NSC803789), olaparib (NSC753686), talazoparib (NSC767125), ART-558 (NSC835418), sotorasib (NSC818433), MRTX-1133 (NSC836407), SN-38 (NSC673596), topotecan (NSC609699), etoposide (NSC141540), doxorubicin (NSC123127), gemcitabine (NSC613327), 5-fluorouracil (NSC19893), paclitaxel (NSC125973), vemurafenib (NSC761431), panobinostat (NSC761190), R-306465 (JNJ-16241199; NSC773264), adavosertib (NSC754352), TP-3654 (NSC805149), carboplatin (NSC241240), KSQ-4279 (NSC840948), and staurosporine (NSC755774) were obtained from the National Cancer Institute (NCI) Developmental Therapeutics Program Chemical Repository (34). The FDA-approved anticancer drug set is available from the NCI Developmental Therapeutics Program. […] The stock solutions were prepared in dimethyl sulfoxide (DMSO, Sigma-Aldrich, St. Louis, MO, cat. D2650) at 800-fold the tested concentration and stored at -70 degrees C prior to their use. All drugs and investigational agents were tested over a range starting from a high concentration at or near the clinical Cmax and decreasing in half-log increments. If the clinical Cmax for an agent had not been determined, the highest concentration tested was 10 microM.
2.3 Cell Culture. All cells were maintained in an incubator at 37 degrees C and 5% CO2 with 95% humidity. The PDC lines were cultured according to standard operating procedures established by the NCI PDMR. All PDCs were thawed and cultured in Matrigel-coated flasks prepared with a working solution of 1X Ham's F-12 nutrient mix, without supplementation (Invitrogen, cat. 11765054), 100 U/mL penicillin-streptomycin (Invitrogen, cat. 15140122), and 2.5% Matrigel (Corning Inc., cat. 354248) for the first three passages. The 857933-349-R-J2-PDC line was cultured in 6C/Colon 1B media, which includes advanced DMEM/F-12 (Thermo Fisher Scientific, cat. 12634028), 10 mM HEPES (Thermo Fisher Scientific, cat. 15630080), 1X GlutaMAX supplement (Thermo Fisher Scientific, cat. 35050061), 0.1 mg/mL primocin (InvivoGen, cat. ant-pm-2), 10% defined fetal bovine serum, heat inactivated (HyClone Laboratories Inc., cat. SH30070.03HI), 50% L-WRN conditioned media (ATCC, cat. CRL-3276), 1.25 mM N-Acetyl-L-cysteine (Sigma-Aldrich, cat. A9165), 10 mM nicotinamide (Sigma-Aldrich, cat. N0636), 1X B-27 supplement (Thermo Fisher Scientific, cat. 17504044), 1X N-2 supplement (Thermo Fisher Scientific, cat. 17502048), 10 microM Y-27632 dihydrochloride (Tocris Bioscience, cat. 1254), and 50 ng/mL human EGF recombinant protein (Thermo Fisher Scientific, cat. PHG0311). The 485176-168-R4-J1-PDC line was cultured in Panc media, which includes all 6C/Colon 1B media components plus 100 ng/mL human FGF-10 (Thermo Fisher Scientific, cat. 100-26), 500 nM SB-431542 (Selleckchem, cat. S1067), and gastrin (Tocris, cat. 3006).
[…]
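Further: spheroids exposed to the agents for one week before reading.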
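Wherever viability, T/C is given: percent of vehicle DMSO control viability so 100% = untreated growth.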

CC[C@@]1(O)C(=O)OCc2c1cc1n(c2=O)Cc2cc3c(CN(C)C)c(O)ccc3nc2-1 + Cc1[nH]c2ccc(F)cc2c1-c1nc2c3cccnc3c3ncccc3c2[nH]1
IC50 (second compound 0.0316 µM): > 316 nM | IC50 (second compound 0.1 µM): > 316 nM | IC50 (second compound 0.316 µM): > 316 nM | IC50 (second compound 1 µM): 22.9 nM | IC50 (second compound 3.16 µM): < 0.999 nM | IC50 (second compound 10 µM): 31 nM | viability, T/C (second compound 0.0316 µM, first compound 0.000999 µM): 106% | viability, T/C (second compound 0.0316 µM, first compound 0.00316 µM): 105% | viability, T/C (second compound 0.0316 µM, first compound 0.00999 µM): 93.5% | viability, T/C (second compound 0.0316 µM, first compound 0.0316 µM): 90.7% | viability, T/C (second compound 0.0316 µM, first compound 0.0999 µM): 63.1% | viability, T/C (second compound 0.0316 µM, first compound 0.316 µM): 71.5% | viability, T/C (second compound 0.1 µM, first compound 0.000999 µM): 104% | viability, T/C (second compound 0.1 µM, first compound 0.00316 µM): 95.4% | viability, T/C (second compound 0.1 µM, first compound 0.00999 µM): 84.4% | viability, T/C (second compound 0.1 µM, first compound 0.0316 µM): 88.7% | viability, T/C (second compound 0.1 µM, first compound 0.0999 µM): 58% | viability, T/C (second compound 0.1 µM, first compound 0.316 µM): 62.3% | viability, T/C (second compound 0.316 µM, first compound 0.000999 µM): 86.8% | viability, T/C (second compound 0.316 µM, first compound 0.00316 µM): 83.7% | viability, T/C (second compound 0.316 µM, first compound 0.00999 µM): 61.9% | viability, T/C (second compound 0.316 µM, first compound 0.0316 µM): 64.6% | viability, T/C (second compound 0.316 µM, first compound 0.0999 µM): 75% | viability, T/C (second compound 0.316 µM, first compound 0.316 µM): 52.3% | viability, T/C (second compound 1 µM, first compound 0.000999 µM): 64.6% | viability, T/C (second compound 1 µM, first compound 0.00316 µM): 76.8% | viability, T/C (second compound 1 µM, first compound 0.00999 µM): 59.3% | viability, T/C (second compound 1 µM, first compound 0.0316 µM): 44.7% | viability, T/C (second compound 1 µM, first compound 0.0999 µM): 53.4% | viability, T/C (second compound 1 µM, first compound 0.316 µM): 41.2% | viability, T/C (second compound 3.16 µM, first compound 0.000999 µM): 39.1% | viability, T/C (second compound 3.16 µM, first compound 0.00316 µM): 57.1% | viability, T/C (second compound 3.16 µM, first compound 0.00999 µM): 39.9% | viability, T/C (second compound 3.16 µM, first compound 0.0316 µM): 35.7% | viability, T/C (second compound 3.16 µM, first compound 0.0999 µM): 33.6% | viability, T/C (second compound 3.16 µM, first compound 0.316 µM): 31.4% | viability, T/C (second compound 10 µM, first compound 0.000999 µM): 71.6% | viability, T/C (second compound 10 µM, first compound 0.00316 µM): 58.9% | viability, T/C (second compound 10 µM, first compound 0.00999 µM): 63.3% | viability, T/C (second compound 10 µM, first compound 0.0316 µM): 41.5% | viability, T/C (second compound 10 µM, first compound 0.0999 µM): 50.1% | viability, T/C (second compound 10 µM, first compound 0.316 µM): 34.7%
